# In PubChem BioAssay (NCI):
#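 Values below derive from 48-hour exposures of cells grown in 96-well plates, with endpoints linearly interpolated between the two concentrations bracketing the appropriate inhibition level. The concentration for full growth arrest is given as TGI.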
# Experiments:
# Assay in all cases: inhibition of tumour cell growth, NCI panel, 48 h
# [1] = tested on: MCF7 breast
# [2] = tested on: K-562 leukemia
# [3] = tested on: MALME-3M melanoma
# [4] = tested on: A549 NSCLC
# [5] = tested on: CCRF-CEM leukemia
# [6] = tested on: SF-295 CNS
# [7] = tested on: OVCAR-4 ovarian
# [8] = tested on: NCI-H226 lung
# [9] = tested on: UACC-257 melanoma
# [10] = tested on: HL-60(TB) leukemia
# [11] = tested on: HCT-116 colon
# [12] = tested on: UO-31 renal
# [13] = tested on: SK-MEL-28 melanoma
# [14] = tested on: SNB-19 CNS
# [15] = tested on: UACC-62 melanoma
# [16] = tested on: LOX IMVI melanoma
# [17] = tested on: U251 CNS
# [18] = tested on: SW-620 colon
# [19] = tested on: KM12 colon
# [20] = tested on: NCI-H522 lung
SMILES,TGI [1] [µM],TGI [2] [µM],TGI [3] [µM],TGI [4] [µM],TGI [5] [µM],TGI [6] [µM],TGI [7] [µM],TGI [8] [µM],TGI [9] [µM],TGI [10] [µM],TGI [11] [µM],TGI [12] [µM],TGI [13] [µM],TGI [14] [µM],TGI [15] [µM],TGI [16] [µM],TGI [17] [µM],TGI [18] [µM],TGI [19] [µM],TGI [20] [µM]
O=C1CC(=O)c2c(O)cc(O)c(c2O)-c2c(ccc(O)c2O)C2=CC(=O)c3c(O)cc(O)c(c3O2)-c2c1ccc(O)c2O (tested in a mixture with another compound),> 50,> 50,> 50,> 50,> 50,> 50,> 50,> 50,> 50,> 50,> 50,> 50,> 50,> 50,> 50,> 50,> 50,> 50,–,–
CCCCCCCCCCCCCCCCSCC(COC)COP(=O)([O-])OCC[N+](C)(C)C (configuration not stated),26.7,28,29.4,20.5,10.1,11.6,15.3,9.24,28.8,4.4,18.7,20.3,29.5,9.6,19.6,17.4,4.37,17.7,2.45,10.9
CC(=O)NCCC1CN(C(=O)/C=C\C#C[Si](C)(C)C)c2ccccc21 (configuration not stated),> 100,> 100,49.4,> 100,> 100,> 100,63.3,46,9.27,81.3,–,> 100,> 100,93.7,32.4,44.3,–,> 100,> 100,24.3
CCOC(=O)c1sc2nc(SC)nc3c2c1NC(=O)CN3c1cccc(F)c1,> 100,93.3,> 100,28,–,40.2,42,31.7,> 100,24.4,53,35.1,22.9,47.9,> 100,38.8,31.9,> 100,> 100,> 100
O=C(NCCCCCCNC(=O)n1cc(F)c(=O)[nH]c1=O)NCCCOCCOCCCNC(=O)C(O)C(O)C(O)C(O)CO (configuration not stated),> 2.5,> 2.5,> 2.5,> 2.5,> 2.5,> 2.5,> 2.5,> 2.5,> 2.5,> 2.5,> 2.5,> 2.5,> 2.5,> 2.5,> 2.5,> 2.5,> 2.5,> 2.5,> 2.5,> 2.5
C/C(=N\NS(=O)(=O)c1ccccc1)c1ccccc1,> 100,> 100,> 100,> 100,> 100,> 100,> 100,> 100,> 100,> 100,> 100,> 100,> 100,> 100,> 100,> 100,> 100,> 100,> 100,> 100
O=C(CC/C=C(/CS(=O)(=O)c1ccccc1)S(=O)(=O)c1ccccc1)c1ccccc1,–,> 100,–,> 100,> 100,> 100,> 100,> 100,> 100,> 100,> 100,> 100,> 100,> 100,> 100,> 100,> 100,> 100,> 100,49.8
CC(=O)OCC1OC(n2cc(F)c(=O)[nH]c2=O)C(N)C(OC(C)=O)C1OC(C)=O (configuration not stated),> 100,> 100,> 100,> 100,> 100,> 100,> 100,> 100,> 100,> 100,> 100,> 100,–,> 100,> 100,> 100,> 100,> 100,> 100,> 100
